{
  "source": "paper PMC11222147",
  "about": "“Host defence peptide plectasin targets bacterial cell wall precursor lipid II by a calcium-sensitive supramolecular mechanism” (Nature Microbiology, 2024)",
  "key": {"[1]": {"test_system": "S. simulans 22", "experiment": "MIC assays under standard conditions", "assay_type": "cell-based, Staphylococcus simulans", "conditions": "Supplementary Table 1; cation-adjusted MHB, 37 °C, 16–20 h", "outline": "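Broth microdilution in cation-adjusted MHB, inoculum from OD600 0.5 TSB culture diluted 100-fold, 37 °C with shaking. Streptococci: 5% lysed horse blood, 5% CO2, MIC read visually at 20–24 h; S. simulans read at 16–20 h.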"}, "[2]": {"experiment": "Isothermal titration calorimetry with lipid II LUVs", "assay_type": "binding", "conditions": "for loss in lipid II binding affinity (ITC): mutant vs plectasin", "method": "About 200 nm large unilamellar vesicles (LUVs) were prepared from 2 mol% lipid II in DOPC by the extrusion technique. ITC measurements were conducted on a low-volume Affinity ITC (TA instruments). All measurements were conducted at 37 °C. Samples were degassed for 10 min before the ITC experiments. The cell was filled with plectasin (in 50 mM HEPES, 150 mM NaCl at pH = 7.2) and titrated with LUVs in the same buffer under constant stirring at 125 r.p.m. The data were analysed using the Nano Analyze software version 3.11.0 (TA Instruments). After baseline correction, the integrated peaks were fitted using an independent binding model. Each measurement was acquired in duplicate."}, "[3]": {"experiment": "HS-AFM oligomerization on supported lipid bilayers doped with lipid II", "conditions": "DOPC/DOPG (1:1), 1% lipid II, 1 mM Ca^2+, up to 1 µM, n = 3", "procedure": "HS-AFM imaging was performed on a supported lipid bilayer deposited on mica using an amplitude modulation tapping mode HS-AFM from RIBM (Ando type)[11]. The lipid compositions are as stated in the experimental conditions of the corresponding results. Short cantilevers (∼7 μm) with a nominal spring constant of 0.15 N m^−1 were used (USC-F1.2-k0.15, NanoWorld) for all experiments. A minimal imaging force was applied by using a small set-point amplitude, typically 80% of the free amplitude (for 1–2 nm of free amplitude). […] Imaging was started on the lipid bilayer surface in recording buffer. […] All reported experiments were repeated for at least three times for each condition. Image analysis was done using Igor Pro version 6.22 (Wavemetrics) with RIBM script and ImageJ version 1.501 with minimal image corrections (tilt, drift and background corrections). The time stamps on HS-AFM videos are relative to plectasin addition into the liquid chamber. Image acquisition rate varied from 0.5 frames per second to 2 frames per second (see the figure/video legends)."}, "[4]": {"test_system": "S. pneumoniae serotype 8", "experiment": "MIC assays under standard conditions", "assay_type": "cell-based, Streptococcus pneumoniae", "conditions": "Supplementary Table 1; cation-adjusted MHB + 5% lysed horse blood, 5% CO2, 20–24 h", "method": "(§1) Plectasin and analogues were serially diluted in cation-adjusted Mueller–Hinton broth (MHB) in round-bottom polypropylene 96-well plates (50 µl per well). Selected bacterial strains were grown from glycerol stocks on blood agar plates. Individual colonies were inoculated in TSB and incubated at 37 °C while shaking until OD600 reached 0.5. Bacterial suspensions were then diluted 100 times in cation-adjusted MHB and distributed (50 μl per well) over the microplate containing the diluted plectasin solutions. Plates were covered by a gas-permeable adhesive membrane and incubated at 37 °C while shaking. MICs were determined by visual inspection after 16–20 h (Staphylococcus) or 20–24 h (Streptococcus). For Streptococcus strains, the broth was additionally supplemented with 5% lysed horse blood, and the microplates were incubated under 5% CO2 atmosphere. In the assays, we used the following strains: S. simulans, S. pneumoniae serotype 8, S. pneumoniae ATCC6305 and Streptococcus pyogenes M3."}, "[5]": {"test_system": "S. pyogenes M3", "experiment": "MIC assays under standard conditions", "assay_type": "cell-based, Streptococcus pyogenes", "conditions": "Supplementary Table 1; cation-adjusted MHB + 5% lysed horse blood, 5% CO2, 20–24 h", "method": "as §1"}, "[6]": {"test_system": "S. simulans 22", "assay_type": "cell-based, Staphylococcus simulans", "conditions": "Ca^2+ variable assay", "method": "Cation-depleted MHB was prepared as previously described[18] and supplemented with MgCl2 (0.5 mM) and ZnSO4 (10 µM). Plectasin was serially diluted twofold over a 96-well polypropylene plate. Serial dilutions of Ca^2+ in calcium-depleted medium were subsequently added to the wells containing the plectasin dilution series, followed by addition of bacterial suspensions. MICs were determined by visual inspection after 16–20 h (Staphylococcus). The effect of reduced Ca^2+ levels on S. simulans growth in the absence of plectasin was assessed by monitoring growth at 37 °C by OD600 over 18 h (Supplementary Fig. 4)."}, "[7]": {"conditions": "cited from earlier work", "text": "Extended Data Fig. 5 Plectasin binds to bivalent cations with high affinity and its activity is enhanced by calcium ions. Representative ITC traces of the binding of bivalent cations to plectasin in solution and the effect of Mg^2+ on plectasin-lipid II binding. Heat releases and fits of Mg^2+ (A) or Ca^2+ (B) titrated to plectasin in solution. C) Calculated affinities and thermodynamic parameters experiments from (A) and (B), conducted in duplicate. Heat release traces and fits of the titration of Lipid II DOPC vesicles to plectasin without (D) and with (E) the addition of Mg^2+. F,G). Ca^2+ ..."}},
  "note": "“Also recorded” adds a separate entry of the source. Where a SMILES comes first, the peptide text is derived from it. Bridges are numbered along the chain shown (N, C = ends).",
  "data": [
    {"compound": "CC[C@H](C)[C@@H]1NC(=O)[C@H](CO)NC(=O)[C@H](CCCCN)NC(=O)[C@@H]2CSSC[C@@H](C(=O)N[C@@H](Cc3ccc(O)cc3)C(=O)O)NC(=O)[C@H](CCCCN)NC(=O)[C@@H]3CSSC[C@H](NC(=O)[C@H](CCC(N)=O)NC(=O)[C@H](CCSC)NC(=O)[C@H](CC(=O)O)NC(=O)[C@H](CC(=O)O)NC(=O)[C@H](CCC(=O)O)NC(=O)[C@H](CC(=O)O)NC(=O)[C@H](Cc4c[nH]c5ccccc45)NC(=O)[C@@H]4CCCN4C(=O)CNC(=O)[C@H](CC(N)=O)NC(=O)[C@@H](NC(=O)CNC(=O)[C@H](Cc4ccccc4)NC(=O)CN)CSSC[C@H](NC(=O)[C@H](Cc4ccc(O)cc4)NC(=O)CNC(=O)CNC(=O)[C@H](CCCCN)NC(=O)[C@H](Cc4ccc(O)cc4)NC(=O)CNC(=O)[C@H](CCCCN)NC1=O)C(=O)N[C@@H](C)C(=O)N[C@@H](CCCCN)C(=O)NCC(=O)NCC(=O)N[C@@H](Cc1ccccc1)C(=O)N[C@@H](C(C)C)C(=O)N3)C(=O)N[C@@H](C)C(=O)N[C@@H](CC(N)=O)C(=O)N[C@@H](Cc1c[nH]cn1)C(=O)N2", "note": "[H16A] (H-GFGCNGPWDEDDMQCANHCKSIKGYKGGYCAKGGFVCKCY-OH; disulfide 4-30, 15-37, 19-39 (inferred); N-terminus and C-terminus assumed)", "values": [
      {"measurement": "Minimum inhibitory concentration, S. simulans", "setting": "[1]", "result": "> 50", "unit": "µg/mL"},
      {"measurement": "loss in lipid II binding affinity (ITC)", "setting": "[2]", "result": "> 10", "unit": "fold"},
      {"measurement": "oligomerization in HS-AFM (in words)", "setting": "[3]", "result": "oligomerization was not observed; also recorded: No plectasin oligomerization is observed"}
    ]},
    {"compound": "CC[C@H](C)[C@@H]1NC(=O)[C@H](CO)NC(=O)[C@H](CCCCN)NC(=O)[C@@H]2CSSC[C@@H](C(=O)N[C@@H](Cc3ccc(O)cc3)C(=O)O)NC(=O)[C@H](CCCCN)NC(=O)[C@@H]3CSSC[C@H](NC(=O)[C@H](CCC(N)=O)NC(=O)[C@H](CCSC)NC(=O)[C@H](CC(=O)O)NC(=O)[C@H](CC(=O)O)NC(=O)[C@H](CCC(=O)O)NC(=O)[C@H](CC(=O)O)NC(=O)[C@H](Cc4c[nH]c5ccccc45)NC(=O)[C@@H]4CCCN4C(=O)CNC(=O)[C@H](CC(N)=O)NC(=O)[C@@H](NC(=O)CNC(=O)[C@H](Cc4ccccc4)NC(=O)CN)CSSC[C@H](NC(=O)[C@H](Cc4ccc(O)cc4)NC(=O)CNC(=O)CNC(=O)[C@H](CCCCN)NC(=O)[C@H](Cc4ccc(O)cc4)NC(=O)CNC(=O)[C@H](CCCCN)NC1=O)C(=O)N[C@@H](C)C(=O)N[C@@H](CCCCN)C(=O)NCC(=O)NCC(=O)N[C@@H](Cc1ccccc1)C(=O)N[C@@H](C(C)C)C(=O)N3)C(=O)N[C@@H](Cc1c[nH]cn1)C(=O)N[C@@H](CC(N)=O)C(=O)N[C@@H](C)C(=O)N2", "note": "[H18A] (H-GFGCNGPWDEDDMQCHNACKSIKGYKGGYCAKGGFVCKCY-OH; disulfide 4-30, 15-37, 19-39 (inferred); N-terminus and C-terminus assumed)", "values": [
      {"measurement": "Minimum inhibitory concentration, S. simulans", "setting": "[1]", "result": "> 50", "unit": "µg/mL"},
      {"measurement": "loss in lipid II binding affinity (ITC)", "setting": "[2]", "result": "> 10", "unit": "fold"}
    ]},
    {"compound": "CSCC[C@@H]1NC(=O)[C@H](CC(=O)O)NC(=O)[C@H](CC(=O)O)NC(=O)[C@H](CCC(=O)O)NC(=O)[C@H](CC(=O)O)NC(=O)[C@H](Cc2c[nH]c3ccccc23)NC(=O)[C@@H]2CCCN2C(=O)CNC(=O)[C@H](CC(N)=O)NC(=O)[C@@H](NC(=O)CNC(=O)[C@H](Cc2ccccc2)NC(=O)CN)CSSC[C@@H]2NC(=O)[C@H](Cc3ccc(O)cc3)NC(=O)CNC(=O)CNC(=O)[C@H](CCCCN)NC(=O)[C@H](Cc3ccc(O)cc3)NC(=O)CNC(=O)[C@H](CCCCN)NC(=O)[C@H](C)NC(=O)[C@H](CO)NC(=O)[C@H](CCCCN)NC(=O)[C@@H]3CSSC[C@@H](C(=O)N[C@@H](Cc4ccc(O)cc4)C(=O)O)NC(=O)[C@H](CCCCN)NC(=O)[C@H](CSSC[C@H](NC(=O)[C@H](CCC(N)=O)NC1=O)C(=O)N[C@@H](Cc1c[nH]cn1)C(=O)N[C@@H](CC(N)=O)C(=O)N[C@@H](Cc1c[nH]cn1)C(=O)N3)NC(=O)[C@H](C(C)C)NC(=O)[C@H](Cc1ccccc1)NC(=O)CNC(=O)CNC(=O)[C@H](CCCCN)NC(=O)[C@H](C)NC2=O", "note": "[I22A] (H-GFGCNGPWDEDDMQCHNHCKSAKGYKGGYCAKGGFVCKCY-OH; disulfide 4-30, 15-37, 19-39 (inferred); N-terminus and C-terminus assumed)", "values": [
      {"measurement": "Minimum inhibitory concentration, S. pneumoniae serotype 8", "setting": "[4]", "result": "> 25", "unit": "µg/mL"},
      {"measurement": "Minimum inhibitory concentration, S. pyogenes M3", "setting": "[5]", "result": "> 25", "unit": "µg/mL"},
      {"measurement": "lipid II binding by ITC (in words)", "setting": "[2]; LUVs 2 mol% lipid II in DOPC, 37 °C", "result": "do not bind lipid II"}
    ]},
    {"compound": "daptomycin [reference compound]", "values": [
      {"measurement": "improvement of antimicrobial activity with increasing Ca^2+ concentration", "setting": "[6]", "result": "> 60", "unit": "fold"},
      {"measurement": "increase in MIC if Ca^2+ is replaced by Mg^2+", "setting": "[7]", "result": "> 100"}
    ]}
  ]
}
